From US8609725B2, “Method of using beta-hydroxy-beta-methylbutyrate for reducing tumor growth rate” (Abbott Laboratories, priority 2004, dated 2013)

Columns and labels:
[1] = test system: mice bearing the MAC16 tumor; test: Weight loss, food and water intake in mice bearing the MAC16 tumor; format: in vivo, NMRI mice; settings: doses of HMB greater than 0.125 g/kg, p.o. by gavage daily
Excerpt: This study evaluates the effect of HMB, in comparison with EPA or combination, on weight loss induced by the MAC16 tumor and the mechanisms involved. […] Pure strain male NMRI mice (average weight 25 g) were obtained from our own inbred colony and were transplanted with fragments of the MAC16 tumor s.c. into the flank by means of a trochar, selecting from donor animals with established weight loss as described in Bibby, M. C. et al. Characterization of a transplantable adenocarcinoma of the mouse colon producing cachexia in recipient animals. J. Natl. Cancer Inst., 78: 539-546, 1987. Transplanted animals were fed a rat and mouse breeding diet (Special Diet Services, Witham, United Kingdom) and water ad libitum, and weight loss was evident 10-12 days after tumor implantation. Animals just prior to the development of weight loss were randomized to receive daily either EPA (in olive oil), HMB (in PBS) or the combination as described in the figure legends administered p.o. by gavage, while control animals received either olive oil or PBS. EPA (98% as free acid) was purchased from Biomol Research Laboratories Inc., PA, USA. HMB (as the calcium salt) was obtained from Abbott Laboratories, Columbus, Ohio, USA. All groups contained a minimum of 6 mice. Tumor volume, body weight and food and water intake were monitored daily. […]

[2] = test system: MSS1, an ATPase subunit of the 19S proteasome regulatory complex; test: Western blotting of MSS1 in gastrocnemius muscle of MAC16 mice; format: in vivo, NMRI mice
[3] = test system: phospholipase A (PLA); test: Arachidonic acid release / PLA activation; format: cell-based, murine; settings: mechanism statement
Protocol: For measurement of arachidonic acid release, myotubes in six-well multi dishes containing 2 ml DMEM with 2% HS were labeled for 24 h with 10 μM arachidonic acid (containing 1 μCi of [^3H] arachidonate/ml) (Smith, H. et al. Effect of a cancer cachectic factor on protein synthesis/degradation in murine C2C12 myoblasts: Modulation by eicosapentaenoic acid. Cancer Res., 59: 5507-5513, 1999). Cells were then washed extensively with PBS to remove traces of unincorporated [^3H] arachidonate and either EPA or HMB was added 2 h prior to PIF. After a further 24 h 1 ml of medium was removed to determine the radioactivity released.

[4] = test system: proteasome 20S α subunits, β subunits and p42; test: Western blot of PIF-induced proteasome subunit expression in C2C12 myotubes; format: cell-based, murine; settings: 50 μM; PIF at 4.2 and 10 nM
Protocol: For Western blot analysis, cytosolic protein (2 to 5 μg) obtained for the above assay were resolved on 10% SDS-PAGE and transferred to 0.45 μm nitrocellulose membrane, which had been blocked with 5% Marvel in PBS, at 4° C. overnight. The primary antibodies were used at a dilution of 1:100 (anti-actin and PKCα); 1:500 (anti-ERK1 and 2); 1:1000 (anti-20S proteasome β-subunit and I-κBα); 1:1500 (anti-20S proteasome α-subunit) or 1:5000 (anti-p42), while the secondary antibodies were used at a dilution of 1:2000. Incubation was carried out for 2 h at room temperature and development was by ECL. Loading was quantitated by actin concentration.

[5] = test system: mice bearing the MAC16 tumor; test: Body composition analysis of mice bearing the MAC16 tumor; format: in vivo
Excerpt: Materials and animals were obtained as per Example 1.

In the case of `CC(C)(O)CC(=O)O` [HMB, beta-hydroxy-beta-methylbutyric acid], the weight loss [1] is reported as “significant reduction in weight loss”, the “expression of MSS1” value ([2]; HMB 0.25 g/kg, EPA 0.6 g/kg or combination, 3 days) is reported as “attenuated” and the “reduction of protein expression of MSS1” value ([2]; summary of Examples I-IV) is reported as “at least 50%”. The “activation of PLA or release of AA” value [3] was “not preventing”, the “attenuation of PIF-increased expression of proteasome 20S α subunits, β subunits and p42” value [4] was “attenuated” and the “Fat (%)” value ([5]; HMB 0.125 g/kg for 5 days) was 3.3 ± 1.6%. The “Nonfat (%)” value ([5]; HMB 0.125 g/kg for 5 days) was 31.2 ± 1.5 %, the “Water (%)” value ([5]; HMB 0.125 g/kg for 5 days) was 65.5 ± 0.9% and the “Fat (%)” value ([5]; HMB 0.25 g/kg for 5 days) was 4.4 ± 1.3%. For the same molecule, the “Nonfat (%)” value ([5]; HMB 0.25 g/kg for 5 days) was 29.2 ± 1.9 %, the “Water (%)” value ([5]; HMB 0.25 g/kg for 5 days) was 66.5 ± 2.2% and the “Fat (%)” value ([5]; HMB 0.5 g/kg for 5 days) was 3.8 ± 1.2%. The “Nonfat (%)” value ([5]; HMB 0.5 g/kg for 5 days) was 29.0 ± 1.4 %, the “Water (%)” value ([5]; HMB 0.5 g/kg for 5 days) was 67.2 ± 2.3% and the adipose tissue ([5]; HMB for 5 days, in words) was “without an effect”. For the same molecule, the nonfat carcass mass ([5]; HMB for 5 days, in words) was “significant increase”.
